Each structure is given as a SMILES string. The source made the active and inactive calls. Bounds are passed on as bounds.

Assay [1] can be described thus: Fluorescence polarization-based biochemical high throughput dose response assay for activators of the Protein Kinase A-R1A (PKA-R1A) complex. [Related pubchem assays (depositor defined):AID504704, AID504707, AID504799, AID504800].
Assay [2] in a line: Fluorescence polarization-based biochemical high throughput dose response assay for activators of the Protein Kinase A-R2B (PKA-R2B) complex. [Related pubchem assays (depositor defined):AID504700, AID504704, AID504796, AID504797].
The target in assay [3] is Voltage-gated inwardly rectifying potassium channel KCNH2 (Homo sapiens, UniProt Q12809). To be noted: Potency.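 Note: confirmatory quantitative high-throughput screen measuring inhibition of hERG channel activity.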
Assay [4] is described as follows: viability of HCT116 lacking mutant beta-catenin – cell-based, human colon tumor, dose response (AID 1045).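 Note: HCT116 colon tumor cells with beta catenin knocked out; cells exposed to compound for 60 hours.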 Type of assay: functional.
The target of assay [5] is T1, Ubiquitin-conjugating enzyme E2 N (Homo sapiens, UniProt P61088).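 Note: Dose-response confirmation in a TR-FRET assay detecting UBC13-driven polyubiquitin chain formation, inhibition measured.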
T1 sequence (P61088 whole entry): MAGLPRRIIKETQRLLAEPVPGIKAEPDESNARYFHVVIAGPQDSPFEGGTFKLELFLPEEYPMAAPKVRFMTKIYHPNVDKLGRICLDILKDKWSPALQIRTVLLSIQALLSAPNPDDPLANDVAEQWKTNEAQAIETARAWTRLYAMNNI
Type of assay: functional.

The target of assay [6] is T2, Microphthalmia-associated transcription factor (Homo sapiens, UniProt O75030).
T2 sequence (O75030 whole entry): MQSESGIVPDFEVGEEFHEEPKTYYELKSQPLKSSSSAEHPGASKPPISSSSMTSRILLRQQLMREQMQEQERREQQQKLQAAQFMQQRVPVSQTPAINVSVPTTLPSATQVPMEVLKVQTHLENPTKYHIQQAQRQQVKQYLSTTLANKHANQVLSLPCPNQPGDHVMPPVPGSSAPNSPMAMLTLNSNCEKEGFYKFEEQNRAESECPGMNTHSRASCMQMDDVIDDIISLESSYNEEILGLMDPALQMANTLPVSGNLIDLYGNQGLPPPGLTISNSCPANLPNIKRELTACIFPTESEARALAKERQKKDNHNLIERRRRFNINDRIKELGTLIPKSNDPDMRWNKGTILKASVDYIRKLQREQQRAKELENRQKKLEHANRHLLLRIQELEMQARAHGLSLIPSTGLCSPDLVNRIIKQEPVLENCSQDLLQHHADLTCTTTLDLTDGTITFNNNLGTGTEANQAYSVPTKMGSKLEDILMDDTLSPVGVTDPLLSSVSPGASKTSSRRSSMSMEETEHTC
The assay is described as follows: reducers of TRPM1 reporter luminescence, concentration series – cell-based, SK-MEL-5, cherry-picked, set 3, MITF inhibitor project, dose response (AID 493073).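 Note: SK-MEL-5 melanoma cells with luciferase driven by the MITF target TRPM1 promoter.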 Type of assay: functional.

The nature of assay [7]: viability of PTEN-deleted HCT116 cells – cell-based, HCT116 PTEN knockout, dose response (AID 1047).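 Note: HCT116 colon tumor cells with PTEN knocked out; cells exposed to compound for 60 hours before readout; potency for loss of cell viability measured by luminescence.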 Type of assay: functional.
In another assay the test system is A-375. As to the kind of experiment: MITF: Counter assay: A375 proliferation Measured in Cell-Based System Using Plate Reader - 2084-03_Inhibitor_Dose_DryPowder_Activity. [Related pubchem assays (depositor defined):AID488944]. Type of assay: functional. To be noted: Homo sapiens.
Assay [8] concerns the target T3, Polyadenylate-binding protein 1 (Homo sapiens, UniProt P11940). As to the kind of experiment: MLLE domain peptide-binding blockers, IC50 – biochemical, fluorescence polarization, FITC-PAM2 peptide, dose response (AID 602259). Type of assay: functional. To be noted: read-out: IC50_Mean.
Assay [9] has as its system HEK293. The assay is described as follows: cells. To be noted: Homo sapiens.
Assay [10] has as its system HEK293. The assay is described as follows: cells. To be noted: Homo sapiens. The source holds these as a separate data set.
In assay [11] the target is T3, Polyadenylate-binding protein 1. The assay is described as follows: MLLE binding blockers, Cy5 peptide tracer – biochemical, fluorescence polarization, Cy5-PAM2 peptide, secondary, miRNA deadenylation inhibitor project, dose response (AID 602260). Type of assay: functional. Conditions: read-out: IC50_Mean.
In the next assay the target is Beta-galactosidase (Escherichia coli, UniProt Q8VNN2). As to the kind of experiment: detection-enzyme interference by beta-gal modulators – biochemical, E. coli enzyme, set 3, artefact control for CCR6 antagonist project, dose response (AID 504712). The class given is functional.
Chain of Beta-galactosidase (Q8VNN2 whole entry): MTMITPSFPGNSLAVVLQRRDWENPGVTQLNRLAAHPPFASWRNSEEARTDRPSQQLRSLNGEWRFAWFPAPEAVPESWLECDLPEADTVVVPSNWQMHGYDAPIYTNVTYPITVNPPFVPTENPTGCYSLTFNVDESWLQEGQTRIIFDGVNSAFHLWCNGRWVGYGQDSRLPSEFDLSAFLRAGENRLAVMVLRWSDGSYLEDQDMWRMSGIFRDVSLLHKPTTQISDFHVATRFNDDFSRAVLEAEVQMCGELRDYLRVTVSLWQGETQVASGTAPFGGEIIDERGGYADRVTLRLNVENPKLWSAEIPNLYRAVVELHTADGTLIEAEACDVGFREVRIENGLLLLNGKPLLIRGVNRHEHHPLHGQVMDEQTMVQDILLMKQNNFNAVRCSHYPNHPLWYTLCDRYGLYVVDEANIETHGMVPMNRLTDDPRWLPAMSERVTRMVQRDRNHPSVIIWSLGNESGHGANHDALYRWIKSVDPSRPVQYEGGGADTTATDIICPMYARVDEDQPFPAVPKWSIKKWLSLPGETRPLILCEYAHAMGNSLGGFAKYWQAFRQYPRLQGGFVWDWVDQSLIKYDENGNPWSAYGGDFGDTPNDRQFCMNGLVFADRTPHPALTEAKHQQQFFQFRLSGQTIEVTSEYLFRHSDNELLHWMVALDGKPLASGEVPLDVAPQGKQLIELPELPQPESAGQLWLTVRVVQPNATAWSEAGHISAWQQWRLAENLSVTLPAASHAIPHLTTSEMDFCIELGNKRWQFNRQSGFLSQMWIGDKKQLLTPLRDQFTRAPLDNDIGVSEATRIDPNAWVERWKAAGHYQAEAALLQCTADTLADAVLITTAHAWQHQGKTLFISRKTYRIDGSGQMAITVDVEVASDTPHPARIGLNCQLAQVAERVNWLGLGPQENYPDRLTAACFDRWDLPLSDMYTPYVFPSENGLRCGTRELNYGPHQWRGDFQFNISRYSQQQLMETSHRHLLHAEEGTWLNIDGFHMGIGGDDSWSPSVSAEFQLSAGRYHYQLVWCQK

T3 sequence (P11940 whole entry, the tested form may be a part): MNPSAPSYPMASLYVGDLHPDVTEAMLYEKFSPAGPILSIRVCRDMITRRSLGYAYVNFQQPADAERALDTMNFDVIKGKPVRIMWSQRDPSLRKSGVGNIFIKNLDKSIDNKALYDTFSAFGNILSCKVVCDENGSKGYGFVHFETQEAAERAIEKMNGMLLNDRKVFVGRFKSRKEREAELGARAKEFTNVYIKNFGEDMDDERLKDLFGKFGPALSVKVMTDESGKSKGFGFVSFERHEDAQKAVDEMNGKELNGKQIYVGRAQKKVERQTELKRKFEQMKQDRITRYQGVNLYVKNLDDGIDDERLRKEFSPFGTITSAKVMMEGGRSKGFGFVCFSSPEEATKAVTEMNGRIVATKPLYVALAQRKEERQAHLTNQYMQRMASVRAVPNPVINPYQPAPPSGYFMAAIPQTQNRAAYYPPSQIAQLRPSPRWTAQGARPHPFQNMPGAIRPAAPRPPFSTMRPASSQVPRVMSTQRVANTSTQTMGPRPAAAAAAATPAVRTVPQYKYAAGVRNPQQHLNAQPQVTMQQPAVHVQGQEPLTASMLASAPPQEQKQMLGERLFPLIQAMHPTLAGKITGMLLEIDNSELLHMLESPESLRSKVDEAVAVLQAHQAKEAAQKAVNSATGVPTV
Chain of Voltage-gated inwardly rectifying potassium channel KCNH2 (Q12809 whole entry): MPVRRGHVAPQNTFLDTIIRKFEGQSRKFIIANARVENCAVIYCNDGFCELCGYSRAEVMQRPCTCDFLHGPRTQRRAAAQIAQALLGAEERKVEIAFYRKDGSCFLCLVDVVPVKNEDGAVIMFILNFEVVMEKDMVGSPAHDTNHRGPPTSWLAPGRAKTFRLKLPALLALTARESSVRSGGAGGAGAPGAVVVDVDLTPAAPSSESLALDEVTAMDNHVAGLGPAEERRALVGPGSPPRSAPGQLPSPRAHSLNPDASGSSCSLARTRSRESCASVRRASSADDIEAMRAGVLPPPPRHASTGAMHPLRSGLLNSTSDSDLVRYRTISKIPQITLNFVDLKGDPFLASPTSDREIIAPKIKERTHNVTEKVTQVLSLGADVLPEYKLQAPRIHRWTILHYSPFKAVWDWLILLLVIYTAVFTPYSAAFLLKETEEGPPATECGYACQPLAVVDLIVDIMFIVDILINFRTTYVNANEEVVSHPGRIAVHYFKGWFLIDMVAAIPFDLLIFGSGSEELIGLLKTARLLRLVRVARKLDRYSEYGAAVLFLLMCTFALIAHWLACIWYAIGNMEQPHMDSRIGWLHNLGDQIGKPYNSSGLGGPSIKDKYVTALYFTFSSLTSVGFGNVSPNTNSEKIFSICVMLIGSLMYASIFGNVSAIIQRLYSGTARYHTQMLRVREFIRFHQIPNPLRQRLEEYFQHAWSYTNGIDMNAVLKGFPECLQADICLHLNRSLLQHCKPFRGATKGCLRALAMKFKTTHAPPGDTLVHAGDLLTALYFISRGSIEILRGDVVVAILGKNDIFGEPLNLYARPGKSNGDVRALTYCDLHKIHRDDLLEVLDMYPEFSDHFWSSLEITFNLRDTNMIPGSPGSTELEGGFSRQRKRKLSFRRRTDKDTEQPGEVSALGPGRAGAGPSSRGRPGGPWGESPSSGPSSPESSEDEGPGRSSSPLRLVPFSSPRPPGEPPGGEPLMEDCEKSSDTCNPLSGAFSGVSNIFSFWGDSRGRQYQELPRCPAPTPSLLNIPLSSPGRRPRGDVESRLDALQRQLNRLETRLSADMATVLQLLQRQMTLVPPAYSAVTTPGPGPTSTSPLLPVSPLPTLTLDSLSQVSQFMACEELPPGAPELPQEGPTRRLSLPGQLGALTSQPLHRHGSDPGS

In the case of `CCCC(=O)Nc1ncnc2c1ncn2[C@@H]1O[C@@H]2COP(=O)(O)O[C@H]2[C@H]1OC(=O)CCC`, the EC50 in [1] was 12.3 µM (inactive); in assay [2], 11.7 µM (inactive).

In the case of `C/C=C(/C)C(=O)O[C@H]1C(C)=C2[C@H]([C@@H]1OC(=O)CCCCCCC)[C@@](C)(OC(C)=O)C[C@@H](OC(=O)CCC)[C@@]1(O)[C@H]2OC(=O)[C@@]1(C)O`, the AC50 in assay [3] was 22.4 µM (inconclusive).

As for `COc1ccc(-c2nn(-c3ccccc3)cc2/C=N/N=C(N)N)cc1OC`, the results for the EC50 in assay [4] and in assay [7] were 4.78 µM (active) and 4.55 µM (active), respectively. Moreover, the IC50 in assay [5] is > 20 µM (inactive). Besides, the AC50 was 14.6 µM (active) in assay [6] and 17.4 µM (active) in the assay with A-375.

With `CN(C)CCCN1C(=O)c2cccc3c([N+](=O)[O-])ccc(c23)C1=O`, the results for the IC50 (in assay [8]; in assay [11]; on Beta-galactosidase) were 60.1 µM (inactive), > 66 µM (inactive) and > 66.6 µM (inactive), respectively. Moreover, the EC50 with HEK293 [9] and with HEK293 [10] was > 59.6 µM (inactive) in each case.

Values taken from ChEMBL document CHEMBL1201862, “PubChem BioAssay data set” (2004).
